Source: US7235537B2, “N3 alkylated benzimidazole derivatives as MEK inhibitors” (Array BioPharma, Inc., priority 2002, dated 2007)

Test system: N-terminal 6 His-tagged, constitutively active MEK1 (2-393)
Experiment: MEK1 kinase assay (incorporation of γ-33P-phosphate from γ-33P-ATP onto ERK2)
Assay type: biochemical
Conditions: 5 nM MEK1, 1 μM ERK2, 10 μM ATP, 45 minutes at ambient temperature, 1% DMSO
Procedure: The activity of the compounds of the present invention may be determined by the following procedure. N-terminal 6 His-tagged, constitutively active MEK1 (2-393) is expressed in E. coli and protein is purified by conventional methods (Ahn et al., Science 1994, 265, 966-970). The activity of MEK1 is assessed by measuring the incorporation of γ-^33P-phosphate from γ-^33P-ATP onto N-terminal His tagged ERK2, which is expressed in E. coli and is purified by conventional methods, in the presence of MEK1. The assay is carried out in 96-well polypropylene plate. The incubation mixture (100 μL) comprises of 25 mM Hepes, pH 7.4, 10 mM MgCl2, 5 mM β-glycerolphosphate, 100 μM Na-orthovanadate, 5 mM DTT, 5 nM MEK1, and 1 μM ERK2. Inhibitors are suspended in DMSO, and all reactions, including controls are performed at a final concentration of 1% DMSO. Reactions are initiated by the addition of 10 μM ATP (with 0.5 μCi γ-^33P-ATP/well) and incubated at ambient temperature for 45 minutes. Equal volume of 25% TCA is added to stop the reaction and precipitate the proteins. Precipitated proteins are trapped onto glass fiber B filterplates, and excess labeled ATP washed off using a Tomtec MACH III harvester. Plates are allowed to air-dry prior to adding 30 μL/well of Packard Microscint 20, and plates are counted using a Packard TopCount.

Row | SMILES | Activity
1 | Cn1cnc2c(F)c(Nc3ccc(Br)cc3F)c(C(=O)NOCCO)cc21 [Compound 29lll] | active
2 | Cc1cc(Br)ccc1Nc1c(C(=O)NOCC2CC2)cc2c(ncn2C)c1F [Compound 11c] | active
3 | O=C(NOCCO)c1cc2[nH]cnc2c(F)c1Nc1ccc(Br)cc1Cl [Compound 8n] | active
4 | O=C(NOCC1CC1)c1cc2[nH]cnc2c(F)c1Nc1ccc(Br)cc1Cl [Compound 11b, 6-(4-Bromo-2-chloro-phenylamino)-7-fluoro-3H-benzoimidazole-5-carboxylic acid cyclopropylmethoxy-amide] | active
5 | O=C(NOCCO)c1cc2c(ncn2CC2CCCCO2)c(F)c1Nc1ccc(Br)cc1Cl (stereo not drawn) [Compound 11p, 6-(4-Bromo-2-chloro-phenylamino)-7-fluoro-3-(tetrahydro-pyran-2-ylmethyl)-3H-benzoimidazole-5-carboxylic acid (2-hydroxy-ethoxy)-amide] | active
6 | Cn1cnc2c(F)c(Nc3ccc(Br)cc3F)c(C(=O)NOC(C)(C)CO)cc21 [Compound 29mmm] | active
7 | Cc1cc(Br)ccc1Nc1c(C(=O)NOCC2CC2)cc2c(ncn2CCCCN2CCCCC2)c1F [Compound 18i] | active

Now from value to molecule:

Row | Activity | SMILES
8 | active | Cc1nc(Cn2cnc3c(F)c(Nc4ccc(Br)cc4Cl)c(C(=O)NOCCO)cc32)cs1 [Compound 29s]
9 | active | O=C(NOCCO)c1cc2c(ncn2Cc2ccc(Cl)cc2)c(F)c1Nc1ccc(Br)cc1Cl [Compound 29t]
10 | active | CCCCn1cnc2c(F)c(Nc3ccc(Br)cc3Cl)c(C(=O)NOCC3CC3)cc21 [Compound 29bb]
11 | active | Cn1cnc2c(F)c(Nc3ccc(Br)cc3Cl)c(C(=O)NOC(C)(C)CO)cc21 [Compound 29i]
12 | active | Cn1cnc2c(F)c(Nc3ccc(Br)cc3Cl)c(C(=O)NOCCO)cc21 [Compound 29c, 6-(4-Bromo-2-chloro-phenylamino)-7-fluoro-3-methyl-3H-benzoimidazole-5-carboxylic acid (2-hydroxy-ethoxy)-amide]
